Experimental data published in patent US20260265238A1, “COMPOUNDS AND PHARMACEUTICAL COMPOSITIONS THAT DEGRADE SWI/SNF-RELATED MATRIX-ASSOCIATED ACTIN-DEPENDENT REGULATOR OF CHROMATIN SUBFAMILY A” (Plexium, Inc., priority 2023, published 2026).

Key:
[1] = target: T1, SMARCA2-HiBiT HeLa cells (protein which is expressed from the SMARCA2 gene) (Homo sapiens, UniProt P51531); test: SMARCA2 degradation assay (HiBiT-fusion HeLa cell line, 24 h, luminescence); format: cell-based
T1 construct: protein which is expressed from the SMARCA2 and SMARCA4 genes; host or cells: HeLa (SMARCA2-HiBiT engineered line)
Outline: (§1)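 HiBiT-fusion HeLa lines, 8,000 cells/well, overnight attachment; cpd 10-pt series (typically 10 μM–300 pM), 24 h, 37° C. Lysis with LgBiT + HiBiT substrate, 10 min shaking at RT, luminescence read. DC50 from dose-response fit; % degradation also scored at 1 μM.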

[2] = target: T2, SMARCA4-HiBiT HeLa cells (protein which is expressed from the SMARCA4 gene) (Homo sapiens, UniProt P51532); test: SMARCA4 degradation assay (HiBiT-fusion HeLa cell line, 24 h, luminescence); format: cell-based
T2 construct: protein which is expressed from the SMARCA2 and SMARCA4 genes; host or cells: HeLa (SMARCA4-HiBiT engineered line)
Outline: as §1

T1 sequence (P51531 whole entry, the tested form may be a part): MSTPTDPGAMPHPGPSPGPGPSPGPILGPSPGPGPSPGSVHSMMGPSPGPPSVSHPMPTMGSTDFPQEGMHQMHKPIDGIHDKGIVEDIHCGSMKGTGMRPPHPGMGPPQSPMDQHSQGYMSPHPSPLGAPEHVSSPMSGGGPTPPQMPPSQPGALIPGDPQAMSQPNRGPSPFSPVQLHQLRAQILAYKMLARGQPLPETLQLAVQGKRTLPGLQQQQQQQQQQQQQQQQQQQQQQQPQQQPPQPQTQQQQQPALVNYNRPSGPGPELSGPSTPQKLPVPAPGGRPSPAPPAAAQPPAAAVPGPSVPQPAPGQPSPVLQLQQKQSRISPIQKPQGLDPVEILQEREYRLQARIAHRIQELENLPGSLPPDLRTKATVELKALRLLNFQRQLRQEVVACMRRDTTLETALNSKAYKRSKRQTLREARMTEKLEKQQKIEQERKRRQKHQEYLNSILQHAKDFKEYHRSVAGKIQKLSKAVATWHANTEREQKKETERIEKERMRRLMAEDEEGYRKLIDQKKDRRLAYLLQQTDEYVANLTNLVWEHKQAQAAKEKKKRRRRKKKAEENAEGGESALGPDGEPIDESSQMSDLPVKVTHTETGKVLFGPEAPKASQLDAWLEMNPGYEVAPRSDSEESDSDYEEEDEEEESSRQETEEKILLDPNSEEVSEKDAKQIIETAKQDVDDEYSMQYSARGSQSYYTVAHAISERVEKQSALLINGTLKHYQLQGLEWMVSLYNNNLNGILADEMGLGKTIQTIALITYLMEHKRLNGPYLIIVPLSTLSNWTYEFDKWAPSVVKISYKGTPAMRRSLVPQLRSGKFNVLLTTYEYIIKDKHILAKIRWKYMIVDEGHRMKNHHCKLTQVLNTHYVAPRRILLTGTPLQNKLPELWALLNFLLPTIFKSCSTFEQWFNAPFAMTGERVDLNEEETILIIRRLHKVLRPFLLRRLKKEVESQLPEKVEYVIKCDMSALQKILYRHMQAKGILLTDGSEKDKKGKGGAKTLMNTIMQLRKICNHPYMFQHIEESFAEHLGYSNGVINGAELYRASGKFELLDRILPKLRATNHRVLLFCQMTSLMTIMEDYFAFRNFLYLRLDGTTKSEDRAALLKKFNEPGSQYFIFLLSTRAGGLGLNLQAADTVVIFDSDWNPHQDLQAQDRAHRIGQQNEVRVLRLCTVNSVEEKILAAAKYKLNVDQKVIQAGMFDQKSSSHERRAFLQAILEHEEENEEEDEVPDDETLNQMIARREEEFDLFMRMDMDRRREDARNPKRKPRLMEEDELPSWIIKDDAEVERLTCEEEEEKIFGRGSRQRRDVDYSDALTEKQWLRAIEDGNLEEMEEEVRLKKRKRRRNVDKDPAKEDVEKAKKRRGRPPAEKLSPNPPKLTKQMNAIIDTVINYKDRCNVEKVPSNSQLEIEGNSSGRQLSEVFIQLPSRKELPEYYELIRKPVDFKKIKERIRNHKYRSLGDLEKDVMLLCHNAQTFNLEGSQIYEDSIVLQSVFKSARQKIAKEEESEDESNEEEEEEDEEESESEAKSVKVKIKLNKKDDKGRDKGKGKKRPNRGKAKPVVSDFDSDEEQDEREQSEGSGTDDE
T2 sequence (P51532 whole entry, the tested form may be a part): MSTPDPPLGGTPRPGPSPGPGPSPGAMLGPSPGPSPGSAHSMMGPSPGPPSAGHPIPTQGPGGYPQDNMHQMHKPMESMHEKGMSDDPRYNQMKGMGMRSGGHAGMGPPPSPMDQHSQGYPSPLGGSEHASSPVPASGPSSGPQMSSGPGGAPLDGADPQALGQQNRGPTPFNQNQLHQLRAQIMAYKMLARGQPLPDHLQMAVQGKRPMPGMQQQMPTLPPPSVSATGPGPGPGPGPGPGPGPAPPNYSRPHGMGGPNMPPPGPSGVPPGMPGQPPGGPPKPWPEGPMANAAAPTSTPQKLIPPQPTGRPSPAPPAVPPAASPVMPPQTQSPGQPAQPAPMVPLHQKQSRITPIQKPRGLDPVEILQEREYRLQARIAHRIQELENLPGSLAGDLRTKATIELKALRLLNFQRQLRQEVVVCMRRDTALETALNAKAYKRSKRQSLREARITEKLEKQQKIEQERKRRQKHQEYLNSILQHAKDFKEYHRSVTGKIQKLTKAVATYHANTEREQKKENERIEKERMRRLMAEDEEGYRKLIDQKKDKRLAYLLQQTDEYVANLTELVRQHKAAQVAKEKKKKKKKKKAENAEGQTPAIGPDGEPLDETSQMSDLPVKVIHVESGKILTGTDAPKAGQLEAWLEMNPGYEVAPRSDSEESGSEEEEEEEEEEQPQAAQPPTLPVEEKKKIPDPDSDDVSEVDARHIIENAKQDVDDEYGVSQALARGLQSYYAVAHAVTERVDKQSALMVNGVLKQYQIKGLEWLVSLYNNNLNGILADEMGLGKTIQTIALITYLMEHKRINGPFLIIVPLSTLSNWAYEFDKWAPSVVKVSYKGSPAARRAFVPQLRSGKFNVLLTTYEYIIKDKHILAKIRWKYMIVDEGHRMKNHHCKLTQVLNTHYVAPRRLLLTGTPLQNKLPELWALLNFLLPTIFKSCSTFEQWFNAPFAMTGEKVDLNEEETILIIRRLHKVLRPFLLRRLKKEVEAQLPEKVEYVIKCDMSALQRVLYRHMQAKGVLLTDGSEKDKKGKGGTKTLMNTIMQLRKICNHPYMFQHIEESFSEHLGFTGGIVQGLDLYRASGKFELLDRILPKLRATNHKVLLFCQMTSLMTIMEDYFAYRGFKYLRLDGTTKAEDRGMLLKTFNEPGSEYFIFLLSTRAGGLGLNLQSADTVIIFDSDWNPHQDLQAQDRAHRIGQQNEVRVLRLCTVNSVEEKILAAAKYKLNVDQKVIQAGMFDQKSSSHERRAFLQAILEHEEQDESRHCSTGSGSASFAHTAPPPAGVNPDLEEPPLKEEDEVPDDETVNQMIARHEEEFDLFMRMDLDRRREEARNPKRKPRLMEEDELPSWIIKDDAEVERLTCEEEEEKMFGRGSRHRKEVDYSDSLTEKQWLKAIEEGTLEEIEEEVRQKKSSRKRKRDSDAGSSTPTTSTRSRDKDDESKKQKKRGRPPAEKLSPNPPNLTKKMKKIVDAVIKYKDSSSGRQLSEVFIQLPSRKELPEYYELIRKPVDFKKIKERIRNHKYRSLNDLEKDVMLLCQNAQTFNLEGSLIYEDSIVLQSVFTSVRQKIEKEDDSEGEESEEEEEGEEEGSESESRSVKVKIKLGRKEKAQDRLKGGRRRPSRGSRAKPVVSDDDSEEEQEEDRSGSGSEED

SMILES	DC50 [1] [nM]	SMARCA2 % Degradation @ 1 μM [1]	DC50 [2] [nM]	inhibition at 1 µM [2] [%]
CN(C)c1cc(N2CCCN(c3cc(-c4ccccc4O)nnc3N)CC2)nc(C#CCNC(=O)c2cc3ncccn3n2)n1 [Compound P-139, N-(3-(4-(4-(3-amino-6-(2-hydroxyphenyl)pyridazin-4-yl)-1,4-diazepan-1-yl)-6-(dimethylamino)pyrimidin-2-yl)prop-2-yn-1-yl)pyrazolo[1,5-a]pyrimidine-2-carboxamide]	50 to 500	+++ (+++=>70%)	500 to 5000	> 70
Cc1c(C(=O)NCC#Cc2nc(N(C)C)cc(N3CCCN(c4cc(-c5ccccc5O)nnc4N)CC3)n2)nn(C)c1C [Compound P-140, N-(3-(4-(4-(3-amino-6-(2-hydroxyphenyl)pyridazin-4-yl)-1,4-diazepan-1-yl)-6-(dimethylamino)pyrimidin-2-yl)prop-2-yn-1-yl)-1,4,5-trimethyl-1H-pyrazole-3-carboxamide]	500 to 5000	++ (++=30-70%)	500 to 5000	30 to 70
CNc1cc(N2CCCN(c3cc(-c4ccccc4O)nnc3N)CC2)nc(C#CCNC(=O)c2nn(C)c(C)c2C)n1 [Compound P-141, N-(3-(4-(4-(3-amino-6-(2-hydroxyphenyl)pyridazin-4-yl)-1,4-diazepan-1-yl)-6-(methylamino)pyrimidin-2-yl)prop-2-yn-1-yl)-1,4,5-trimethyl-1H-pyrazole-3-carboxamide]	500 to 5000	??	500 to 5000	30 to 70
CC(C)(C)OC(=O)NC1CCN(CC#Cc2nccc(N3CCCN(c4cc(-c5ccccc5O)nnc4N)CC3)n2)CC1 [Compound P-142, tert-butyl (1-(3-(4-(4-(3-amino-6-(2-hydroxyphenyl)pyridazin-4-yl)-1,4-diazepan-1-yl)pyrimidin-2-yl)prop-2-yn-1-yl)piperidin-4-yl)carbamate]	50 to 500	+++ (+++=>70%)	50 to 500	> 70
CC(C)(C)OC(=O)N1CCN(CC#Cc2nccc(N3CCCN(c4cc(-c5ccccc5O)nnc4N)CC3)n2)CC1 [Compound P-143, tert-butyl 4-(3-(4-(4-(3-amino-6-(2-hydroxyphenyl)pyridazin-4-yl)-1,4-diazepan-1-yl)pyrimidin-2-yl)prop-2-yn-1-yl)piperazine-1-carboxylate]	50 to 500	+++ (+++=>70%)	50 to 500	30 to 70
Nc1nnc(-c2ccccc2O)cc1N1CCCN(c2ccnc(C#CCn3ccnn3)n2)CC1 [Compound P-144, 2-(5-(4-(2-(3-(1H-1,2,3-triazol-1-yl)prop-1-yn-1-yl)pyrimidin-4-yl)-1,4-diazepan-1-yl)-6-aminopyridazin-3-yl)phenol]	50 to 500	+++ (+++=>70%)	50 to 500	30 to 70
Nc1nnc(-c2ccccc2O)cc1N1CCCN(c2ccnc(C#CCn3ccnc3)n2)CC1 [Compound P-145, 2-(5-(4-(2-(3-(1H-imidazol-1-yl)prop-1-yn-1-yl)pyrimidin-4-yl)-1,4-diazepan-1-yl)-6-aminopyridazin-3-yl)phenol]	50 to 500	+++ (+++=>70%)	50 to 500	30 to 70
Nc1nnc(-c2ccccc2O)cc1N1CCCN(c2ccnc(C#CCN3CCn4nccc4C3)n2)CC1 [Compound P-146, 2-(6-amino-5-(4-(2-(3-(6,7-dihydropyrazolo[1,5-a]pyrazin-5(4H)-yl)prop-1-yn-1-yl)pyrimidin-4-yl)-1,4-diazepan-1-yl)pyridazin-3-yl)phenol]	50 to 500	+++ (+++=>70%)	50 to 500	30 to 70
CNCC#Cc1nccc(N2CCCN(c3cc(-c4ccccc4O)nnc3N)CC2)n1 [Compound P-147, 2-(6-amino-5-(4-(2-(3-(methylamino)prop-1-yn-1-yl)pyrimidin-4-yl)-1,4-diazepan-1-yl)pyridazin-3-yl)phenol]	50 to 500	++ (++=30-70%)	50 to 500	30 to 70
Nc1nnc(-c2ccccc2O)cc1N1CCCN(c2ccnc(C#CCn3cncn3)n2)CC1 [Compound P-148, 2-(5-(4-(2-(3-(1H-1,2,4-triazol-1-yl)prop-1-yn-1-yl)pyrimidin-4-yl)-1,4-diazepan-1-yl)-6-aminopyridazin-3-yl)phenol]	50 to 500	+++ (+++=>70%)	50 to 500	30 to 70
Nc1nnc(-c2ccccc2O)cc1N1CCCN(c2ccnc(C#CCn3cccn3)n2)CC1 [Compound P-149, 2-(5-(4-(2-(3-(1H-pyrazol-1-yl)prop-1-yn-1-yl)pyrimidin-4-yl)-1,4-diazepan-1-yl)-6-aminopyridazin-3-yl)phenol]	50 to 500	–	50 to 500	30 to 70
Nc1nnc(-c2ccccc2O)cc1N1CCCN(c2ccnc(C#CCn3cnc4ccccc43)n2)CC1 [Compound P-150, 2-(5-(4-(2-(3-(1H-benzo[d]imidazol-1-yl)prop-1-yn-1-yl)pyrimidin-4-yl)-1,4-diazepan-1-yl)-6-aminopyridazin-3-yl)phenol]	50 to 500	–	50 to 500	30 to 70
Nc1nnc(-c2ccccc2O)cc1N1CCCN(c2ccnc(C#CCn3ccc4ccccc43)n2)CC1 [Compound P-151, 2-(5-(4-(2-(3-(1H-indol-1-yl)prop-1-yn-1-yl)pyrimidin-4-yl)-1,4-diazepan-1-yl)-6-aminopyridazin-3-yl)phenol]	50 to 500	++ (++=30-70%)	50 to 500	30 to 70
CN(C)CC#Cc1nccc(N2CCCN(c3cc(-c4ccccc4O)nnc3N)CC2)n1 [Compound P-152, 2-(6-amino-5-(4-(2-(3-(dimethylamino)prop-1-yn-1-yl)pyrimidin-4-yl)-1,4-diazepan-1-yl)pyridazin-3-yl)phenol]	50 to 500	+++ (+++=>70%)	50 to 500	30 to 70
CC(=O)N(C)C/C=C/c1nccc(N2CCN(c3cc(-c4ccccc4O)nnc3N)CC[C@H]2C)n1 [Compound P-153, N-[3-(4-{(R)-4-[3-amino-6-(o-hydroxyphenyl)-4-pyridazinyl]-7-methyl-1,4-diazepan-1-yl}-2-pyrimidinyl)-2-propenyl]-N-methylacetamide]	50 to 500	++ (++=30-70%)	50 to 500	30 to 70
C[C@@H]1CCN(c2cc(-c3ccccc3O)nnc2N)CCN1c1ccnc(C#CCN(C)CCF)n1 [Compound P-154, o-{5-[(R)-4-(2-{3-[(2-fluoroethyl)-N-methylamino]-1-propynyl}-4-pyrimidinyl)-5-methyl-1,4-diazepan-1-yl]-6-amino-3-pyridaziny1} phenol]	50 to 500	++ (++=30-70%)	50 to 500	< 30
C[C@@H]1CCN(c2cc(-c3ccccc3O)nnc2N)CCN1c1ccnc(C#CCN(C)CC(F)F)n1 [Compound P-155, o-{5-[(R)-4-(2-{3-[(2,2-difluoroethyl)-N-methylamino]-1-propynyl}-4-pyrimidinyl)-5-methyl-1,4-diazepan-1-yl]-6-amino-3-pyridazinyl}phenol]	50 to 500	++ (++=30-70%)	50 to 500	30 to 70
